ChEMBL document CHEMBL4765295, “Synthesis, pharmacological profile and 2D-QSAR studies of curcumin-amino acid conjugates as potential drug candidates” (Eur J Med Chem, 2020)
Where “and” joins values, the source holds several entries; their conditions need not be identical. Equal values may be shown once.

What was measured:
Peritoneal macrophage [1] = assay: Antiinflammatory activity in […] mouse Peritoneal macrophages assessed as inhibition of LPS-induced NO production at 10 uM preincubated for 1 hr followed by LPS stimulation measured after 24 hrs by Griess method relative to control (reference value: 0.0 %); format: functional; design: scale not given: the % may be the effect or the level left; settings: time 25 hrs
Rattus norvegicus [2] = assay: Antiinflammatory activity in Wistar rat model of carrageenan-induced paw edema assessed as reduction in thickness of paw edema at 10 mg/kg, ip pretreated for 1 hr followed by carrageenan challenge and measured after 4 hrs (reference value: 1.40 +/-0.10 mm); format: functional; settings: time 5 hrs
Salmonella typhimurium = assay: Antibacterial activity against Salmonella typhimurium ATCC 19430 incubated for 18 hrs by agar dilution assay; format: functional, Salmonella enterica subsp. enterica serovar Typhimurium; settings: Salmonella enterica
Rattus norvegicus [3] = assay: Anti-inflammatory activity in Wistar rat assessed as inhibition of carrageenan-induced paw edema at 10 mg/kg, ip pretreated for 1 hr followed by carrageenan challenge and measured after 24 hr relative to control (reference value: 0.00 +/-0.3 %); format: functional; settings: time 25 hrs
Candida albicans = assay: Antifungal activity against Candida albicans incubated for 18 to 24 hrs by CLSI method; format: functional; settings: time 18-24 hrs
Splenocyte [4] = assay: Immunomodulatory activity in Swiss albino mouse splenocytes assessed as cell viability at 10 uM by measuring inhibition of stimulation index incubated for 72 hrs in presence of mitogenic stimulus phytohaemagglutinin by MTT assay relative to indomethacin; format: functional; settings: read-out: Activity
Pseudomonas aeruginosa = assay: Antibacterial activity against Pseudomonas aeruginosa ATCC 27853 incubated for 18 hrs by agar dilution assay; format: functional
Streptococcus pyogenes = assay: Antibacterial activity against Streptococcus pyogenes ATCC 19615 incubated for 18 hrs by agar dilution method; format: functional
Rattus norvegicus [5] = assay: Anti-inflammatory activity in Wistar rat assessed as inhibition of carrageenan-induced paw edema at 10 mg/kg, ip pretreated for 1 hr followed by carrageenan challenge and measured after 1 hr relative to control (reference value: 0.00 +/-0.02 %); format: functional; settings: time 2 hrs
Rattus norvegicus [6] = assay: Antiinflammatory activity in Wistar rat model of carrageenan-induced paw edema assessed as reduction in thickness of paw edema at 10 mg/kg, ip pretreated for 1 hr followed by carrageenan challenge and measured after 24 hrs (reference value: 0.83 +/-0.08 mm); format: functional; settings: time 25 hrs
Staphylococcus aureus = assay: Antibacterial activity against Staphylococcus aureus ATCC 25923 incubated for 18 hrs by agar dilution method; format: functional
Rattus norvegicus [7] = assay: Anti-inflammatory activity in Wistar rat assessed as inhibition of carrageenan-induced paw edema at 10 mg/kg, ip pretreated for 1 hr followed by carrageenan challenge and measured after 4 hr relative to indomethacin; format: functional; settings: time 5 hrs
Peritoneal macrophage [8] = assay: Antiinflammatory activity in […] mouse Peritoneal macrophages assessed as reduction in LPS-induced NO production by measuring reduction in stimulation index at 10 uM preincubated for 1 hr followed by LPS stimulation measured after 24 hrs by Griess method (reference value: 27.31 +/- 2.56 uM); format: functional; settings: time 25 hrs
Rattus norvegicus [9] = assay: Anti-inflammatory activity in Wistar rat assessed as inhibition of carrageenan-induced paw edema at 10 mg/kg, ip pretreated for 1 hr followed by carrageenan challenge and measured after 2 hr relative to control (reference value: 0.00 +/-0.03 %); format: functional; settings: time 3 hrs
Rattus norvegicus [10] = assay: Anti-inflammatory activity in Wistar rat assessed as inhibition of carrageenan-induced paw edema at 10 mg/kg, ip pretreated for 1 hr followed by carrageenan challenge and measured after 4 hr relative to control (reference value: 0.00 +/-0.4 %); format: functional; settings: time 5 hrs
PC-3 = assay: Antiproliferative activity against human PC3 cells assessed as inhibition of cell growth after 72 hrs by MTT assay; format: functional, cell-based; settings: PC-3, 72 h
Rattus norvegicus [11] = assay: Antiinflammatory activity in Wistar rat model of carrageenan-induced paw edema assessed as reduction in thickness of paw edema at 10 mg/kg, ip pretreated for 1 hr followed by carrageenan challenge and measured after 3 hrs (reference value: 1.79 +/-0.07 mm); format: functional; settings: time 4 hrs
Rattus norvegicus [12] = assay: Anti-inflammatory activity in Wistar rat assessed as inhibition of carrageenan-induced paw edema at 10 mg/kg, ip pretreated for 1 hr followed by carrageenan challenge and measured after 3 hr relative to control (reference value: 0.00 +/-0.1 %); format: functional; settings: time 4 hrs
Splenocyte [13] = assay: Immunomodulatory activity in Swiss albino mouse splenocytes assessed as cell viability at 10 uM by measuring stimulation index incubated for 72 hrs in presence of mitogenic stimulus phytohaemagglutinin by MTT assay (reference value: 1.00 +/- 0.24); format: functional
A549 = assay: Antiproliferative activity against human A549 cells assessed as inhibition of cell growth after 72 hrs by MTT assay; format: functional, cell-based; settings: A549, 72 h
MCF7 = assay: Antiproliferative activity against human MCF7 cells assessed as inhibition of cell growth after 72 hrs by MTT assay; format: functional, cell-based; settings: MCF7, 72 h
Rattus norvegicus [14] = assay: Antiinflammatory activity in Wistar rat model of carrageenan-induced paw edema assessed as reduction in thickness of paw edema at 10 mg/kg, ip pretreated for 1 hr followed by carrageenan challenge and measured after 1 hr (reference value: 2.41 +/-0.05 mm); format: functional; settings: time 1 hr after carrageenan
Rattus norvegicus [15] = assay: Antiinflammatory activity in Wistar rat model of carrageenan-induced paw edema assessed as reduction in thickness of paw edema at 10 mg/kg, ip pretreated for 1 hr followed by carrageenan challenge and measured after 2 hrs (reference value: 2.06 +/-0.09 mm); format: functional; settings: time 3 hrs

COc1cc(/C=C/C(=O)/C=C(O)/C=C/c2ccc(OC(=O)C(C)N)c(OC)c2)ccc1OC(=O)C(C)N.Cl.Cl (stereo unspecified)
Activity (Peritoneal macrophage [1]): 27.69% | Activity (Rattus norvegicus [2]): 0.22 mm | MIC (Salmonella typhimurium): 0.25 µg/mL and 0.428 µM | inhibition in vivo at 10 mg/kg (Rattus norvegicus [3]): 28% | MIC (Candida albicans): 1 µg/mL and 1.71 µM | viability at 10 µM (Splenocyte [4]): 63.2% | MIC (Pseudomonas aeruginosa): 0.5 µg/mL and 0.857 µM | MIC (Streptococcus pyogenes): 0.25 µg/mL and 0.428 µM | inhibition in vivo at 10 mg/kg (Rattus norvegicus [5]): 54% | Activity (Rattus norvegicus [6]): 0.6 mm | MIC (Staphylococcus aureus): 0.125 µg/mL and 0.214 µM | inhibition in vivo at 10 mg/kg (Rattus norvegicus [7]): 97% | Activity (Peritoneal macrophage [8]): 19.75 µM | inhibition in vivo at 10 mg/kg (Rattus norvegicus [9]): 54% | inhibition in vivo at 10 mg/kg (Rattus norvegicus [10]): 84% | IC50 (PC-3): 21.7 µM | Activity (Rattus norvegicus [11]): 0.81 mm | inhibition in vivo at 10 mg/kg (Rattus norvegicus [12]): 55% | Activity_index (Splenocyte [13]): 1.91 | IC50 (A549): 22.2 µM | IC50 (MCF7): 9.79 µM | Activity (Rattus norvegicus [14]): 1.11 mm | Activity (Rattus norvegicus [15]): 0.94 mm

COc1cc(/C=C/C(=O)/C=C(O)/C=C/c2ccc(OC(=O)[C@@H](N)CCC(N)=O)c(OC)c2)ccc1OC(=O)[C@@H](N)CCC(N)=O.Cl.Cl
Activity (Peritoneal macrophage [1]): 20.35% | Activity (Rattus norvegicus [2]): 0.81 mm | MIC (Salmonella typhimurium): 0.125 µg/mL and 0.179 µM | inhibition in vivo at 10 mg/kg (Rattus norvegicus [3]): 31% | MIC (Candida albicans): 0.125 µg/mL and 0.179 µM | viability at 10 µM (Splenocyte [4]): 54.5% | MIC (Pseudomonas aeruginosa): 0.5 µg/mL and 0.717 µM | MIC (Streptococcus pyogenes): 0.5 µg/mL and 0.717 µM | inhibition in vivo at 10 mg/kg (Rattus norvegicus [5]): 46% | Activity (Rattus norvegicus [6]): 0.57 mm | MIC (Staphylococcus aureus): 0.25 µg/mL and 0.358 µM | inhibition in vivo at 10 mg/kg (Rattus norvegicus [7]): 48% | Activity (Peritoneal macrophage [8]): 21.75 µM | inhibition in vivo at 10 mg/kg (Rattus norvegicus [9]): 45% | inhibition in vivo at 10 mg/kg (Rattus norvegicus [10]): 42% | IC50 (PC-3): 34.4 µM | Activity (Rattus norvegicus [11]): 1.02 mm | inhibition in vivo at 10 mg/kg (Rattus norvegicus [12]): 43% | Activity_index (Splenocyte [13]): 2.22 | IC50 (A549): 21.1 µM | IC50 (MCF7): 9.15 µM | Activity (Rattus norvegicus [14]): 1.29 mm | Activity (Rattus norvegicus [15]): 1.14 mm
